The record followed here is patent US9999624B2, “Combination Alzheimer therapy using anti-N3pGlu Abeta antibodies + a BACE inhibitor” (Eli Lilly and Company, priority 2014, dated 2018).

One data set deals with young female PDAPP mice. Kind of data set: In Vivo Inhibition of Beta-Secretase (brain Abeta 1-x reduction). The note with it: for Abeta 1-x peptide levels reduced in brain cortex / Abeta 1-x peptide levels reduced in brain hippocampus: 3 hours after administration, compared to vehicle-treated mice; for CNS penetration: inferred from brain Abeta lowering after oral dose. Details: species or system mouse. From the text: Several animal models, including mouse, guinea pig, dog, and monkey, may be used to screen for inhibition of beta-secretase activity in vivo following compound treatment Animals used in this invention can be wild type, transgenic, or gene knockout animals. For example, the PDAPP mouse model, prepared as described in Games et al., Nature 373, 523-527 (1995), and other non-transgenic or gene knockout animals are useful to analyze in vivo inhibition of Abeta and sAPPbeta production in the presence of inhibitory compounds. Generally, 2 to 12 month old PDAPP mice, gene knockout mice or non-transgenic animals are administered compound formulated in vehicles, such as corn oil, cyclodextran, phosphate buffers, […]®, or other suitable vehicles. One to twenty-four hours following the administration of compound, animals are sacrificed, and brains as well as cerebrospinal fluid and plasma are removed for analysis of Abetas, C99, and sAPP fragments. (See May, et al., Journal of Neuroscience, 31, 16507-16516 (2011)). For standard in vivo pharmacology studies, animals are dosed with various concentrations of compound and compared to a vehicle-treated control group dosed at the same time. For some time course studies, brain tissue, plasma, or cerebrospinal fluid is obtained from selected animals, beginning at time 0 to establish a baseline. Compound or appropriate vehicle is administered to other groups and sacrificed at various times after dosing. Brain tissue, plasma, or cerebrospinal fluid is obtained from selected animals and analyzed for the presence of APP cleavage products, including Abeta peptides, sAPPbeta, and other APP fragments, for example, by specific sandwich ELISA assays. At the end of the test period, animals are sacrificed and brain tissues, plasma, or cerebrospinal fluid are analyzed for the presence of Abeta peptides, C99, and sAPPbeta, as appropriate. Brain tissues of APP transgenic animals may also be analyzed for the amount of beta-amyloid plaques following compound treatment. “Abeta 1-x peptide” as used herein refers to the sum of Abeta species that begin with […]-terminus greater than residue 28. This detects the majority of Abeta species and is often called “total Abeta”.

Data set [1] deals with primary cortical neurons from PDAPP transgenic embryonic mice. Kind of data set: PDAPP Primary Neuronal Assay (Abeta ELISA). It is filed as cell-based. The note with it: Mus musculus, Primary cortical neuron, 24 h, Mean ± SEM.
For a further data set, the target named is human BACE1(1-460):Fc (Homo sapiens (Human), UniProt P56817). Kind of data set: BACE1 FRET Assay. The format is biochemical. The conditions noted are these: purified recombinant huBACE1:Fc, FRET substrate, pH 4.6; Mean ± SEM.
Sequence of human BACE1(1-460):Fc (P56817 22-460): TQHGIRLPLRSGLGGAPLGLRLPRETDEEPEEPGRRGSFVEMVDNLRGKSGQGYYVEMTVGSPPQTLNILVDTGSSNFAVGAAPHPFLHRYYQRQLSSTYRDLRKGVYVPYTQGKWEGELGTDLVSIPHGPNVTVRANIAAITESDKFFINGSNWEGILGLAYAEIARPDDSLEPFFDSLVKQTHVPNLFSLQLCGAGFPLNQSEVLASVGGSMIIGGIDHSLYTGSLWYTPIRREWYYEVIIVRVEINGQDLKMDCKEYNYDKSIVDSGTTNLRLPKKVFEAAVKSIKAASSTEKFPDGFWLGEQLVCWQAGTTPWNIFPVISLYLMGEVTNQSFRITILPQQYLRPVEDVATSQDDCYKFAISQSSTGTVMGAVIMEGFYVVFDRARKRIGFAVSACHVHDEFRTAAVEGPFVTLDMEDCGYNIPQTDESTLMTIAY

Where a name gives a salt, the structure may show the parent alone. Read-outs that look alike come from different tables or passages of the source.

For `COc1cnc(C(=O)Nc2ccc(F)c([C@]34CN(c5ncc(F)cn5)C[C@H]3CSC(N)=N4)c2)cn1.Cl` [Example 4, N-[3-[(4aR,7aS)-2-Amino-6-(5-fluoropyrimidin-2-yl)-4,4a,5,7-tetrahydropyrrolo[3,4-d][1,3]thiazin-7a-yl]-4-fluoro-phenyl]-5-methoxy-pyrazine-2-carboxamide hydrochloride], the “Abeta 1-x peptide levels reduced in brain cortex” value is listed as “approximately 28%” with young female PDAPP mice (0.3 mg/kg oral dose), roughly 42% in the data set with young female PDAPP mice (1 mg/kg oral dose) and roughly 64% in the data set on young female PDAPP mice (3 mg/kg oral dose). Further, the “Abeta 1-x peptide levels reduced in brain hippocampus” value was “approximately 31%” with young female PDAPP mice (0.3 mg/kg oral dose), roughly 39% in the data set on young female PDAPP mice (1 mg/kg oral dose) and roughly 61% in the data set with young female PDAPP mice (3 mg/kg oral dose). In addition, the CNS penetration result with young female PDAPP mice is “demonstrate CNS penetration”.
As usually defined, the IC50 is the concentration at which inhibition is half-maximal. Take `N#Cc1ccc(C(=O)Nc2ccc(F)c([C@]34CN(c5ncc(F)cn5)C[C@H]3CSC(N)=N4)c2)nc1` [Example 8, N-[3-[(4aR,7aS)-2-Amino-6-(5-fluoropyrimidin-2-yl)-4,4a,5,7-tetrahydropyrrolo[3,4-d][1,3]thiazin-7a-yl]-4-fluoro-phenyl]-5-cyano-pyridine-2-carboxamide hydrochloride]: the IC50 in data set [1] (Abeta 1-40 in conditioned media, read-out: PDAPP Neuron A-beta (1-40) ELISA IC50) was determined as 0.137 nM; in data set [1] (Abeta 1-42 in conditioned media, read-out: PDAPP Neuron A-beta (1-42) ELISA IC50) it was 0.0725 nM.
As to `NC1=N[C@@]2(c3cccc(NC(=O)c4ncc(F)cc4F)c3)CN(c3ncc(F)cn3)C[C@H]2CS1` [Example 7, N-[3-[(4aR,7aS)-2-Amino-6-(5-fluoropyrimidin-2-yl)-4,4a,5,7-tetrahydropyrrolo[3,4-d][1,3]thiazin-7a-yl]phenyl]-3,5-difluoro-pyridine-2-carboxamide hydrochloride], at human BACE1(1-460):Fc, the IC50 was 0.739 nM.
Turning to `Cl.NC1=N[C@@]2(c3cccc(NC(=O)c4ccc(F)cn4)c3)CN(c3ncc(F)cn3)C[C@H]2CS1` [Example 1, N-{3-[(4aR,7aS)-2-Amino-6-(5-fluoropyrimidin-2-yl)-4a,5,6,7-tetrahydropyrrolo[3,4-d][1,3]thiazin-7a(4H)-yl]phenyl}-5-fluoropyridine-2-carboxamide hydrochloride], the CNS penetration entry in the data set on young female PDAPP mice is “demonstrate CNS penetration”. The half-maximal inhibitory concentration (IC50) on human BACE1(1-460):Fc is 0.61 nM.
